According to ChEMBL document CHEMBL1201862, “PubChem BioAssay data set” (2004):
“And” between values parts separate entries of the source, which are not always exact repeats. Equal entries are not always repeated.

Tests used:
Cytochrome P450 2C9 = Cytochrome P450 2C9 (Homo sapiens, UniProt P11712)
Cytochrome P450 1A2 = target: T1, Cytochrome P450 1A2 (Homo sapiens, UniProt P05177);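 also: PubChem cytochrome P450 panel assay, CYP1A2 panel member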
T1 sequence (P05177 whole entry): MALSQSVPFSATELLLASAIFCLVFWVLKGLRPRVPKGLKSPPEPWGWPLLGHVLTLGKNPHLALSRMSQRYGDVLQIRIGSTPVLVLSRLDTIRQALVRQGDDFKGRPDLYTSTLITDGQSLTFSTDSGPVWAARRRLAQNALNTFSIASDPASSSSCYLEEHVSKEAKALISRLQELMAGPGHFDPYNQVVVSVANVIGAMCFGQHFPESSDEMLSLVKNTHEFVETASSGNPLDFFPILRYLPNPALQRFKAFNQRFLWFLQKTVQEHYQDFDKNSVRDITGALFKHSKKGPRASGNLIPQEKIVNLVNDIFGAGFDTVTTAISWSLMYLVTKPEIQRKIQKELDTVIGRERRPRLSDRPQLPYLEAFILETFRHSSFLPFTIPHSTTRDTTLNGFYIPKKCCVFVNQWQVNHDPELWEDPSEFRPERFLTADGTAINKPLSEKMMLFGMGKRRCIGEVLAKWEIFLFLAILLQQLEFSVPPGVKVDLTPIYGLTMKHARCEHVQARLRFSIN

Cytochrome P450 3A4 = Cytochrome P450 3A4 (Homo sapiens, UniProt P08684);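 also: CYP3A4 tested as one member of a cytochrome P450 panel screen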
Cytochrome P450 2C19 = Cytochrome P450 2C19 (Homo sapiens, UniProt P33261); assay: Cytochrome panel assay with activity outcomes. Panel member name: p450-cyp2c19 Compounds with AC50 equal or less than 10 uM are considered active; type: functional
Cytochrome P450 2D6 = Cytochrome P450 2D6 (Homo sapiens, UniProt P10635);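 also: CYP2D6 member of a cytochrome P450 panel assay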
Sequence of Cytochrome P450 2D6 (P10635 whole entry): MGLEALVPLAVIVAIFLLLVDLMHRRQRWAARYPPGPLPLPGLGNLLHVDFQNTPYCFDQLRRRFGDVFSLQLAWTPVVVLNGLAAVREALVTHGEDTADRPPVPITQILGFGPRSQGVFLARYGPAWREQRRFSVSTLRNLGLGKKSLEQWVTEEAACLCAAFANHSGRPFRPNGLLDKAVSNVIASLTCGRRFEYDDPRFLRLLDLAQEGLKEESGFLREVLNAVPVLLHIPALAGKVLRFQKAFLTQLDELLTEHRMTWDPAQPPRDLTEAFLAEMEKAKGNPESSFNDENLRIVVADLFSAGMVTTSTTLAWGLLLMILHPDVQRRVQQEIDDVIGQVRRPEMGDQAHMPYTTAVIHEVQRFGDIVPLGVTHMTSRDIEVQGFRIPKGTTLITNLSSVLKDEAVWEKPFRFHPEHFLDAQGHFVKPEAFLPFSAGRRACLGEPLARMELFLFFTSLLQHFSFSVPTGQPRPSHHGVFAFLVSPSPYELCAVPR

Sequence of Cytochrome P450 2C9 (P11712 whole entry): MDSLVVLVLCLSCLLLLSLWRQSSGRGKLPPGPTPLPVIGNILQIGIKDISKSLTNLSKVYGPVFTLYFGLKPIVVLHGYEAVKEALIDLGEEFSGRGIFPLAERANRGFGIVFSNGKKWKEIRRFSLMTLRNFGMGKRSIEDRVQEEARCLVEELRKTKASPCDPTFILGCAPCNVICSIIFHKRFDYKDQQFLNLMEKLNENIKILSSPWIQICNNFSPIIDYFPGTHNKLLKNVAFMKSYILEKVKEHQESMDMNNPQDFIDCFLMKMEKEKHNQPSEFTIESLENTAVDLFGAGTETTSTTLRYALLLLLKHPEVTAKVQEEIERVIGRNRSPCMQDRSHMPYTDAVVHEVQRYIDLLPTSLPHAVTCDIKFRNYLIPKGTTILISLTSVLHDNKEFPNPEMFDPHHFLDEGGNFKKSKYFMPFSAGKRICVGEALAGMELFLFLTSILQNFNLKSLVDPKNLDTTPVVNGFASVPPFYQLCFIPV
Sequence of Cytochrome P450 2C19 (P33261 whole entry): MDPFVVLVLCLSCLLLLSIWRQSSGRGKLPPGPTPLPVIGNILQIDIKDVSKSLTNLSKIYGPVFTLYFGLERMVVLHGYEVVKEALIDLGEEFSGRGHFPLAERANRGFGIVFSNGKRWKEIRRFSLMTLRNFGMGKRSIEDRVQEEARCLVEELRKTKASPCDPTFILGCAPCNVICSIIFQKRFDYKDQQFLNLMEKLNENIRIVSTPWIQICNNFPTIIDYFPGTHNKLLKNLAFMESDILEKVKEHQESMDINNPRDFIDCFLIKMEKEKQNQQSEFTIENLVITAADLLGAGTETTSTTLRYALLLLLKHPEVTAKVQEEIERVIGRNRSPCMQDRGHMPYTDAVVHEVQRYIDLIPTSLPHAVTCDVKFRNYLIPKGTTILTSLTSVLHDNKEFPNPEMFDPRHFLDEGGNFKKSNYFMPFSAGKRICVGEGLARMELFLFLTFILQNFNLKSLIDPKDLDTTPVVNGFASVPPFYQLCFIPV
Sequence of Cytochrome P450 3A4 (P08684 whole entry): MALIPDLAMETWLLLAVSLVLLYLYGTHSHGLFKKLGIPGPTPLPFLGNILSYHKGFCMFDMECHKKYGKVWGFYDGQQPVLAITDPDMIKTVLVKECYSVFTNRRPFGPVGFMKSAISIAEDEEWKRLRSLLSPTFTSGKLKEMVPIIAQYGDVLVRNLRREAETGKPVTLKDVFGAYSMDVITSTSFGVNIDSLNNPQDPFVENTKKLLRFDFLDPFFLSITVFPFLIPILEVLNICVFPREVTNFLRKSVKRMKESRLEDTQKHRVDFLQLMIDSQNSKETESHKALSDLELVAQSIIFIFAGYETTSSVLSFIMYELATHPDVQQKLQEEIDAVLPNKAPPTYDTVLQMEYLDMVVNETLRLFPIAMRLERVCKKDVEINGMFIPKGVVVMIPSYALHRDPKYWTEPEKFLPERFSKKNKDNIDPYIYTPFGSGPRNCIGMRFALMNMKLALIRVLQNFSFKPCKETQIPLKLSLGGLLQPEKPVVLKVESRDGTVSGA

Row | Compound | AC50 (Cytochrome P450 2C9) | AC50 (Cytochrome P450 3A4) | AC50 (Cytochrome P450 2C19; read-out: AC50) | AC50 (Cytochrome P450 2D6) | AC50 (Cytochrome P450 2C19) | AC50 (Cytochrome P450 1A2)
1 | CC(C)CN1CCCC2(CCN(C(=O)c3ccco3)CC2)C1 | inconclusive | 31.6 µM (inconclusive) |  |  |  | 
2 | Cc1cc(SC(C)C(=O)Nc2c(C)n(C)n(-c3ccccc3)c2=O)nc2ccccc12 (stereo unspecified) | inconclusive |  | 11.2 µM (inconclusive) |  |  | 
3 | Cc1c(Cl)c(S(N)(=O)=O)cc2c1N=CNS2(=O)=O | inconclusive |  |  | 3.98 µM (inconclusive) |  | 

Now from value to molecule, other results behind:

Row | AC50 (Cytochrome P450 2C9) | AC50 (Cytochrome P450 3A4) | AC50 (Cytochrome P450 2C19; read-out: AC50) | AC50 (Cytochrome P450 2D6) | AC50 (Cytochrome P450 2C19) | Compound | AC50 (Cytochrome P450 1A2)
4 | inconclusive |  |  |  |  | Cc1ccccc1C(=O)Nc1ccc(N2CCOCC2)nc1 | 17.8 µM (inconclusive)
5 | inactive |  |  |  | inactive | CN(C)CCCN1c2ccccc2CCc2ccc(Cl)cc21 [CLOMIPRAMINE] | 15.8 µM (active) and 5.01 µM (active) and 20 µM (inconclusive)
